Experimental data published in EP0638309A1, “Substances inhibiting proteic adp ribosilation suitable to prevent the diabetes mellitus complications” (ISTITUTO BIOCHIMICO ITALIANO GIOVANNI LORENZINI S.p.A., priority 1993, dated 1995).

Experiments:
[1] = test system: 5 YSY neuroblastoma; test: Myoinositol metabolism (accumulation and incorporation) in neuroblastoma cells cultured in glucose; format: cell-based; settings: glucose 30 mM, substance 10⁻⁵ M; for Myoinositol Incorporation: fraction linked to the membranes
Method: A diabetic neuropathy in vitro model has been carried out using neuroblastoma cells cultured in chronic hyperglucosemia conditions. This condition causes the typical diabetes mellitus dismetabolic effects as the polyols (sorbitol) accumulation, the myoinositol reduction and the reduction of the Na pump functionality. […] et al. - Alan R., Liss. […] In the groups from 2) to 4) glucose (30 mM) has been added to the culture renewing the culture medium and then adding glucose every 72 hours, during a three weeks period. In the group 3), at the same time of the glucose, one of the substances inhibiting proteic ADP-ribosilation reported in the table 1 (amount 10^-5 M) has been added. In the group 4), at the same time of the glucose one of the substances non inhibiting proteic ADP-ribosilation reported in the table 1 (dermatan sulphate and tolrestat) in amount 10^-5 M has been added. On the experimental groups above described also the myoinositol metabolism alteration has been studied which has been valued by the method described by Yorek et al., in "Diabetes", pag. […]

[2] = test system: substance P axonal transport; test: Substance P axonal transport in ligated sciatic nerve of alloxan-diabetic rats; format: in vivo; settings: for anterograde and retrograde accumulation of substance P, in words: 10 mg/kg daily; for substance P content, NSc: contralateral non-ligated sciatic nerve; for substance P content, NSc / substance P content, D / substance P content, P2 / substance P content, P1: ± ES; for substance P content, D: distal segment; for substance P content, P1: proximal segment contiguous to ligature
From the text: The effectiveness verification of the substances inhibiting proteic ADP-ribosilation in preventing the diabetes mellitus complications has been carried out in vivo on rats in diabetes mellitus models induced by alloxan. With this purpose, […] substance P axonal transport in the five following experimental groups, each consisting of N° 8 rats: • 1) control group; • 2) diabetic rats group; • 3) diabetic rats group treated with vitamin K1 (substance inhibiting the proteic ADP-ribosilation); • 4) diabetic rats group treated with arachidic acid (substance inhibiting the proteic ADP-ribosilation); • 5) diabetic rats group treated with dermatan sulphate (substance non inhibiting proteic ADP-ribosilation).
The Sprague Dawley strain rats used, 250 gr weight, male sex, were supplied by Charles River.
(§1) The diabetes has been induced in the rats of the groups from 2) to 5) by a single subcutaneous injection of 100 mg/kg of alloxan dissolved in pH 4.5 0.1 M citrate-phosphate buffer solution.
The pharmacological treatment of the groups 3) and 5) respectivelly with vitamin K1 and dermatansulphate, has been carried out by intraperitoneal administration of said substances dissolved in physiologic solution at 10 mg/kg dose. […] Groups 1) and 2) have been injected with an equivalent volume of physiologic solution.
(§2) The pharmacological treatment started 7 days after the diabetes induction and prosecuted until the sacrifice with daily administration.
To estimate the axonal transport of substance P the accumulation of the substance P in three segments of sciatic nerve two millimeters long was estimated 24 hours from the ligature of the same nerve.
The operations of the sciatic nerve ligature, of the tissues withdrawal from the same and of substance P extraction from the tissues for the radioimmunologic dosage, have been carried out by the following way.
The animals were anaesthetised by intraperitoneal administration of 35 mg/kg of pentobarbital dissolved in 0.9% physiologic solution. After wright thigh epilation and cutis section the sciatic nerve was exposed at half thigh level (at least 0.8 cm from the popliteal cavity where the nerve ramifies). The ligature has been made by sterile silk thread which has been twice knotted to about half of the exposed nerve portion.
The sacrifice has been accomplished after 8 weeks from the diabetes induction, after 24 hours from the ligature.
Immediately after the sacrifice, in the former operation seat, the removal of the whole sciatic nerve has been made and finally from this the three segments each about 2 mm long have been withdrawn: segment P1 (proximal contiguous to the ligature); segment P2 (immediately above P1) and segment D (distal contiguous to the ligature), as it is shown in fig. 1.
The withdrawn tissues have been placed in polypropylene test-tubes held in ice and containing a volume of acetic acid 1 N in 10:1 ratio with the tissue weight. Then the tissues homogenization has been done by a continuous speed variation homogenizer (Heavy Stirrer, mod. 12) and a polytetrafluoroethylene pestle perfectly adherent to the test-tube walls. After the homogenate aliquots required for the tissue proteins dosage have been withdrawn (0.1 ml) the test-tubes have been immerged in a boiling water bath for 8-10 minutes, for inactivating the peptidases eventually still present in the samples, and then left for about 30 minutes at 4 °C for completely cooling.
The […] obtained by centrifugation of the homogenate at 40.000 x g for 10 minutes, has been lyophilized and the dry residue has been reconstituted in distilled water, stirred by vortex and centrifuged at 40.000 x g for 10 minutes. From the samples so reconstituted the suitable aliquots required for the substance P radioimmunological dosage have been withdrawn. […]

[3] = Body weight and glycemia control in alloxan-diabetic rats; format: in vivo; settings: diabetic animals 8 weeks after the diabetes induction, 10 mg/kg daily; for Glycemia: caudal vein blood before sacrifice
Method: The effectiveness verification of the substances inhibiting proteic ADP-ribosilation in preventing the diabetes mellitus complications has been carried out in vivo on rats in diabetes mellitus models induced by alloxan.
as §1
Groups 1) and 2) have been injected with an equivalent volume of physiologic solution.
as §2
The blood samples have been withdrawn at the caudal vein level before the animals sacrifice.

[4] = test system: 5 YSY neuroblastoma; test: Neuritogenesis after retinoic acid in neuroblastoma cells cultured in chronic hyperglucosemia (in vitro diabetic neuropathy model); format: cell-based; settings: substance 10⁻⁵ M; for Percentage of cells with neurits after retinoic acid addition: glucose 30 mM for three weeks
Method: A diabetic neuropathy in vitro model has been carried out using neuroblastoma cells cultured in chronic hyperglucosemia conditions. This condition causes the typical diabetes mellitus dismetabolic effects as the polyols (sorbitol) accumulation, the myoinositol reduction and the reduction of the Na pump functionality. […] A. Shahar et al. - Alan R., Liss.
In the groups from 2) to 4) glucose (30 mM) has been added to the culture renewing the culture medium and then adding glucose every 72 hours, during a three weeks period.
In the group 3), at the same time of the glucose, one of the substances inhibiting proteic ADP-ribosilation reported in the table 1 (amount 10⁻⁵ M) has been added.
In the group 4), at the same time of the glucose one of the substances non inhibiting proteic ADP-ribosilation reported in the table 1 (dermatan sulphate and tolrestat) in amount 10⁻⁵ M has been added.
Subsequently retinoic acid (5 x 10⁻⁶ M) has been added to the cultures 1) to 4) for causing the cells neuritogenesis which has been valued by the observation at the optic microscope considering as neurit the cytoplasmatic extension having a length corresponding at least to twice as the diameter of the cell.

[5] = test system: transducin; test: In vitro ADP-ribosilation of retina membrane proteins G from treated diabetic rats (autoradiogram); format: in vivo; settings: retina membrane fraction of diabetic rats treated at 50 mg/kg
From the text: A further experimentation on the silybin effect on the ADP-ribosilation of retina proteins G has been carried out. The evaluation of said proteins ribosilability has been performed by the method described by Duman et al. in J. Neurochem. (1991). pages 2124-2132.
For said experimentation the retinas withdrawn from the rats of the groups 1a), 2a) and 3a) used for the experimentation on the substance P axonal transport, were used.
The retinas have been homogenized and subdivided in cellular fractions and the membrane fraction has been selected for the ADP-ribosilation reaction in vitro.
2 which represents the autoradiogram of an electrophoretic gel obtained from said membrane cellular fraction.
Column 1P derives from the retinas of the control group rats, column 2P derives from the retinas of the diabetic rats and column 3P derives from the retinas of the diabetic rats treated with silybin at a 50 mg/kg dose.

[6] = 10 mg/kg daily (vitamin K1, dermatansulphate intraperitoneal; arachidic acid oral), 8 weeks after induction
[7] = 24 hours after ligature, 10 mg/kg daily (vitamin K1, dermatansulphate intraperitoneal; arachidic acid oral)
[8] = proximal segment above P1, 24 hours after ligature, 10 mg/kg daily (vitamin K1, dermatansulphate intraperitoneal; arachidic acid oral)
[9] = second experiment, oral 50 mg/kg/die

Molecule	Myoinositol Incorporation [1]	Myoinositol Accumulation [1]	further results
CCCCCCCCCCCCCC(=O)O [myristic acid]	0.85 n mol/µg of protein	8.91 n mol/µg of protein	–
CCCCCCCCCCCCCCCCCCCC(=O)O [arachidic acid]	0.92 n mol/µg of protein	9.02 n mol/µg of protein	anterograde and retrograde accumulation of substance P, in words [2]: normalized; substance P content, NSc [2, 6]: 1.24±0.006 ng/mg of tissular protein; substance P content, D [2, 7]: 1.80±0.06 ng/mg of tissular protein; substance P content, P2 [2, 8]: 1.40±0.05 ng/mg of tissular protein; substance P content, P1 [2, 7]: 9.44±0.14 ng/mg of tissular protein; Body weight [3]: 239±12.6 gr.; Glycemia [3]: 471 ± 9.4 mg/dL
CC/C=C\C/C=C\C/C=C\CCCCCCCC(=O)O [linolenic acid (C18:3-cis-9.12.15), linolenic acid]	0.81 n mol/µg of protein	8.44 n mol/µg of protein	–
CCCCC/C=C\C/C=C\CCCCCCCC(=O)O [linoleic acid (C18:2-cis-9.12), linoleic acid]	0.88 n mol/µg of protein	8.66 n mol/µg of protein	–
O=c1cc(-c2ccccc2)oc2ccccc12 [flavone]	0.67 n mol/µg of protein	6.54 n mol/µg of protein	–
Nc1ccc2c3c(cccc13)C(=O)NC2=O [4-amino-1.8-naphthalimide]	0.78 n mol/µg of protein	8.01 n mol/µg of protein	–
CC1=CC(=O)c2ccccc2C1=O [Vit K3, vitamin K3]	0.85 n mol/µg of protein	8.56 n mol/µg of protein	–
O=C1NC(=O)c2cccc3cccc1c23 [1.8 Naphthalimide, 1.8-naphthalimide]	0.91 n mol/µg of protein	9.20 n mol/µg of protein	–
COc1ccc2c(C(=S)N(C)CC(=O)O)cccc2c1C(F)(F)F [tolrestat]	–	–	prevention of the diabetic neuropathy (neuritogenesis), in words ([4]; glucose 30 mM): does not exercise any effect for preventing the diabetic neuropathy
O=c1[nH]c2ccc([N+](=O)[O-])cc2c2ccccc12 [2-nitro-(6(5H)-phenanthridinone, 2-nitro-6(5H)-phenanthridinone]	0.81 n mol/µg of protein	8.51 n mol/µg of protein	–
CCCCCCCCCCCCCCCC(=O)O [palmitic acid]	0.89 n mol/µg of protein	9.39 n mol/µg of protein	–
CO[C@@H]1[C@@H](OC(N)=O)[C@@H](O)[C@H](Oc2ccc3c(O)c(NC(=O)c4ccc(O)c(CC=C(C)C)c4)c(=O)oc3c2C)OC1(C)C [novobiocin]	0.60 n mol/µg of protein	6.0 n mol/µg of protein	–
COc1cc(C2Oc3cc([C@H]4Oc5cc(O)cc(O)c5C(=O)[C@@H]4O)ccc3OC2CO)ccc1O (stereo partly drawn) [silybin]	–	–	substance P content, NSc [2, 9]: 2.26±0.040 ng/mg of tissular protein; substance P content, D [2, 9]: 4.05±0.071 ng/mg of tissular protein; substance P content, P2 ([2]; second experiment, proximal segment above P1, oral 50 mg/kg/die): 7.07±0.59 ng/mg of tissular protein; substance P content, P1 [2, 9]: 11.42±0.18 ng/mg of tissular protein; transducin ribosilability, in words [5]: maintained
CCCCCCCCCCCCCCCCCC(=O)O [stearic acid]	0.95 n mol/µg of protein	9.89 n mol/µg of protein	–
CC(=CCC1=C(C)C(=O)c2ccccc2C1=O)CCCC(C)CCCC(C)CCCC(C)C (stereo not drawn) [Vit K1, vitamin K1]	0.98 n mol/µg of protein	9.66 n mol/µg of protein	anterograde and retrograde accumulation of substance P, in words [2]: normalized; substance P content, NSc [2, 6]: 1.28±0.008 ng/mg of tissular protein; substance P content, D [2, 7]: 1.96±0.08 ng/mg of tissular protein; substance P content, P2 [2, 8]: 2.44±0.09 ng/mg of tissular protein; substance P content, P1 [2, 7]: 8.72±0.16 ng/mg of tissular protein; Body weight [3]: 244±12.6 gr.; Glycemia [3]: 438 ± 6.4 mg/dL
vitamin K2 [Vit K2]	0.88 n mol/µg of protein	8.99 n mol/µg of protein	Percentage of cells with neurits after retinoic acid addition ([4]; 3 days in retinoic acid): 45%; Percentage of cells with neurits after retinoic acid addition ([4]; 7 days in retinoic acid): 65%; Percentage of cells with neurits after retinoic acid addition ([4]; 12 days in retinoic acid): 98%
